The values below come from article PMC8541575, “Optimization and Development of Selective Histone Deacetylase Inhibitor (MPT0B291)-Loaded Albumin Nanoparticles for Anticancer Therapy” (Pharmaceutics, 2021).

In one data set the test system is MIA PaCa-2 cells. Description: Cell viability (MTT) assay. The class given is cell-based. Conditions: Homo sapiens, 24 h of exposure, read-out: 50% inhibitory concentration (IC50). How it is done:
Briefly, MIA PaCa-2 cells were seeded (5 × 10^3 cells/well) in 96-well culture plates. After 24 h of incubation in a humidified incubator at 37 °C with 5% CO2, the medium of adherent cells was replaced with serum-free culture medium and incubated with 200 μL of serial dilutions of HSA-NPs (0.01~1000 μg/mL) and MPT0B291-HSAX NPs ([…]). After another 24 h, 100 µL of MTT (500 μg/mL in PBS, pH 7.4) was added and incubated at 37 °C for 2 h. The medium was then removed, and 100 µL of DMSO was added to each well to dissolve the crystals. The optical density (OD) was measured at 540 nm using a microplate reader (Cytation™ 3 Cell Imaging Multi-Mode Reader, BioTek, Winooski, VT, USA). The cell survival rate was calculated as follows:(3) Cell survival rate (%)=Absorbance value of test solution group /Absorbance value of blank solution group ×100%

The nature of data set [1]: In vitro drug release by dialysis bag. The class given is physicochemical. Conditions: 0.25 mg/mL in propylene glycol, pH 7.4 phosphate buffer with 1% Tween 80, 37 °C. As for the experimental part: The dialysis bag was subsequently placed into 25 mL of release medium (PBS) containing 1% v/v Tween 80. The temperature was maintained at 37.0 ± 0.5 °C, and the medium was stirred at a speed of 100 rpm. MPT0B291 which had been dissolved in propylene glycol (free MPT0B291; 0.25 mg/mL) was used as a control and was treated in the same manner. During a period of 48 h, the surrounding environment was maintained by replacing 2 mL of the release medium with an equal volume of fresh medium at regular intervals. The extraction solution was solubilized in 500 μL of acetonitrile and assayed by HPLC.

Data set [2] has as its system healthy Balb/c female mice. Description: Maximum tolerated dose, single i.v. dose. Format: in vivo. As for the experimental part: The single-dose study was conducted using healthy female mice with four animals per group.
Data set [3] in a line: In vivo pharmacokinetic study after intravenous administration. As to conditions: male, Sprague-Dawley, rat, plasma, rats, i.v., 5 mg/kg body weight, mean ± SD (n = 4). How it is done: Male Sprague-Dawley rats (250 ± 15 g) were divided into two groups (with four rats per group). […] All collected blood samples were centrifuged at 4000 rpm and 4 °C for 10 min, and supernatant plasma samples were obtained and frozen at -80 °C for further analysis. Quantitative analysis of MPT0B291 in rat plasma by an ultra-precision liquid chromatographic tandem mass spectroscopic (UPLC-MS/MS) method was performed using an Agilent 1290 Infinity II LC System (Agilent, Wilmington, DE, USA) coupled with an Agilent 6470 triple quadrupole LC/MS system (Agilent Technologies, Santa Clara, CA, USA). Optimized chromatographic separation of MPT0B291 was conducted with an ACQUITY UPLC BEH C18 column (1.7 μm, 2.1 × 100 mm; Waters, Milford, MA, USA) at an oven temperature of 40 °C. The mobile phase was 0.1% (v/v) formic acid in water (mobile phase A) and acetonitrile containing 0.1% (v/v) formic acid (mobile phase B) with gradient elution at a flow rate of 0.3 mL/min. All analytical procedures were evaluated with positive electrospray ionization (ESI). The LC gradient was programmed in linear steps as follows: 0~0.5 min, 5% mobile phase B (v/v); 0.5~1 min, 5% mobile phase B to 100% mobile phase B (v/v); 1~2.8 min, 100% mobile phase B; 2.8~3 min, 100% mobile phase B to 5% mobile phase B (v/v); and 3~4 min, 5% mobile phase B (v/v). Quantification was achieved using the multiple reaction monitoring (MRM) mode at m/z 344.1 → 91.0 for MPT0B291. The following PK parameters were determined: the area under the concentration-time curve (AUC), maximum peak concentration (Cmax), time of maximum peak concentration (Tmax), and mean residence time (MRT). These parameters were determined by DAS software vers. 2.0. All data are presented as mean ± standard deviation (SD).

As a reminder, the AUC(0-inf) is total exposure, with the tail of the curve extrapolated. A low value points to less exposure. As a reminder, the clearance is the volume of plasma or blood freed of the substance per unit of time. For orientation: MRT means the average time that molecules of a dose stay in the body. For `O=C(/C=C/c1cccc(S(=O)(=O)n2ccc3cccnc32)c1)NO` [MPT0B291], in the data set with MIA PaCa-2 cells, the IC50 came to 4.71 µM. Further, in data set [1], the “Drug released within 1 h” value worked out at 60% and the “Drug released within 8 h” value was ~100%. Further, the “Mortality after single i.v. dose of 150 mg/kg BW” value in data set [2] (n = 4) is “one mouse was found dead after 24 h and another one also died on the following day”. Besides, the “Maximum tolerated dose (MTD)” value in data set [2] (single dose, i.v. route) is “approximately 75 mg/kg BW”. Besides, the AUC(0-inf) in data set [3] came out at 293 ± 39.2 ng·h/mL. The AUC(0-t) in data set [3] (read-out: AUC0–24h) came to 291 ± 39.7 ng·h/mL. For the same compound, the clearance in data set [3] (read-out: CL (clearance)) amounted to 288 ± 36.7 mL/min/kg. Moreover, in data set [3] (read-out: MRT (mean residence time)), the MRT is 1.86 ± 0.66 h. Moreover, the Vd in data set [3] (read-out: Vss (volume of distribution at steady state)) is 32.6 ± 12.3 L/kg. For the same compound, the half-life in data set [3] (read-out: t1/2 (elimination half-life) (converted)) is 2.07 ± 0.64 h.
